According to ChEMBL document CHEMBL4808195, “Discovery of heterocyclic substituted dihydropyrazoles as potent anticancer agents” (Bioorg Med Chem Lett, 2021):

Experiments:
MDA-MB-231 = assay: Anticancer activity against human MDA-MB-231 cells assessed as inhibition of cell growth at 10 uM measured by SRB method; assay type: functional
HCC1806 [1] = assay: Anticancer activity against human HCC1806 cells assessed as inhibition of cell growth at 10 uM measured by SRB method; assay type: functional
NCI-H1975 = assay: Anticancer activity against human NCI-H1975 cells assessed as inhibition of cell growth at 10 uM measured by SRB method; assay type: functional
HCT-116 = assay: Anticancer activity against human HCT-116 cells assessed as inhibition of cell proliferation; assay type: functional, cell-based
HeLa = assay: Anticancer activity against human HeLa cells assessed as inhibition of cell proliferation; assay type: functional, cell-based
A549 = assay: Anticancer activity against human A549 cells assessed as inhibition of cell proliferation; assay type: functional, cell-based
HCC1806 [2] = assay: Anticancer activity against human HCC1806 cells assessed as inhibition of cell proliferation; assay type: functional, cell-based

| SMILES | inhibition at 10 µM (MDA-MB-231) [%] | inhibition at 10 µM (HCC1806 [1]) [%] | inhibition at 10 µM (NCI-H1975) [%] | IC50 (HCT-116) [µM] | IC50 (HeLa) [µM] | IC50 (A549) [µM] | IC50 (HCC1806 [2]) [µM] |
| --- | --- | --- | --- | --- | --- | --- | --- |
| CN1CCN(c2ccc(C3=NN(S(C)(=O)=O)C(c4ccc(N(C)C)cc4)C3)cc2)CC1 (stereo unspecified) | 0.6 | -18.5 | -1.3 |  |  |  |  |
| CN1CCN(c2ccc(C3=NN(C(=O)c4ccc(F)cc4)C(c4ccc(N(C)C)cc4)C3)cc2)CC1 (stereo unspecified) | 3.5 | 31.8 | 32.2 |  |  |  |  |
| CN(C)c1ccc(C2CC(c3ccc(-n4cncn4)cc3)=NN2S(=O)(=O)c2ccc(C(F)(F)F)cc2)cc1 (stereo unspecified) | 15.3 | 37 | 5.5 |  |  |  |  |
| Cc1ccc(S(=O)(=O)N2N=C(c3ccc(-n4ccnc4)cc3)CC2c2ccc(N(C)C)cc2)cc1 (stereo unspecified) | 50.8 | 66 | 50.5 |  |  |  |  |
| CN1CCN(c2ccc(C3=NN(C(=O)CCCl)C(c4ccc(N(C)C)cc4)C3)cc2)CC1 (stereo unspecified) | 2.4 | 1.7 | -0.2 |  |  |  |  |
| CN(C)c1ccc(C2CC(c3ccc(-n4ccnc4)cc3)=NN2C(=O)Cc2ccccc2)cc1 (stereo unspecified) | 7.2 | 2 | -5.5 |  |  |  |  |
| CN1CCN(c2ccc(C3=NN(S(=O)(=O)C4CC4)C(c4ccc(N(C)C)cc4)C3)cc2)CC1 (stereo unspecified) | 3.7 | 4.7 | 0.2 |  |  |  |  |
| CC(=O)N1N=C(c2ccc(-n3ccnc3)cc2)CC1c1ccc(N(C)C)cc1 (stereo unspecified) | 5 | -9.7 | -2.1 |  |  |  |  |
| CN(C)c1ccc(C2CC(c3ccc(-n4cncn4)cc3)=NN2C(=O)c2ccc(C(F)(F)F)cc2)cc1 (stereo unspecified) | 16.7 | 7 | 11.5 |  |  |  |  |
| CN(C)c1ccc(C2CC(c3ccc(-n4ccnc4)cc3)=NN2C(=O)CCCl)cc1 (stereo unspecified) | 2.1 | -5.2 | -2.5 |  |  |  |  |
| CC(=O)N1N=C(c2ccc(N3CCN(C)CC3)cc2)CC1c1ccc(N(C)C)cc1 (stereo unspecified) | -1 | -0.8 | -1.9 |  |  |  |  |
| COC(=O)CC(=O)N1N=C(c2ccc(N3CCN(C)CC3)cc2)CC1c1ccc(N(C)C)cc1 (stereo unspecified) | -0.4 | -8.3 | -2.2 |  |  |  |  |
| CN(C)c1ccc(C2CC(c3ccc(-n4cncn4)cc3)=NN2C(=O)Cc2ccccc2)cc1 (stereo unspecified) | 2.9 | -6.9 | -4 |  |  |  |  |
| CN(C)c1ccc(C2CC(c3ccc(-n4cncn4)cc3)=NN2C(=O)CCCl)cc1 (stereo unspecified) | 3.7 | -3.4 | -0.7 |  |  |  |  |
| CN1CCN(c2ccc(C3=NN(S(=O)(=O)c4ccc(OC(F)(F)F)cc4)C(c4ccc(N(C)C)cc4)C3)cc2)CC1 (stereo unspecified) | 10.6 | 70.8 | 26.5 |  |  |  |  |
| CN(C)c1ccc(C2CC(c3ccc(-n4ccnc4)cc3)=NN2S(=O)(=O)c2ccc([N+](=O)[O-])cc2)cc1 (stereo unspecified) | 41.5 | 46.6 | 53 |  |  |  |  |
| CN(C)c1ccc(C2CC(c3ccc(-n4cncn4)cc3)=NN2S(=O)(=O)c2ccc(F)cc2)cc1 (stereo unspecified) | 12.1 | 24.1 | -0.5 |  |  |  |  |
| CN(C)c1ccc(C2CC(c3ccc(-n4ccnc4)cc3)=NN2S(=O)(=O)c2ccc(C#N)cc2)cc1 (stereo unspecified) | 7.1 | 4.7 | 0.7 |  |  |  |  |
| CN1CCN(c2ccc(C3=NN(C(=O)Cc4ccccc4)C(c4ccc(N(C)C)cc4)C3)cc2)CC1 (stereo unspecified) | 1.9 | 1 | -2.8 |  |  |  |  |
| CN(C)c1ccc(C2CC(c3ccc(-n4cncn4)cc3)=NN2S(=O)(=O)c2ccc(Br)cc2)cc1 (stereo unspecified) | 10.4 | 26.3 | -0.6 |  |  |  |  |
| CN1CCN(c2ccc(C3=NN(S(=O)(=O)c4ccc(Br)cc4)C(c4ccc(N(C)C)cc4)C3)cc2)CC1 (stereo unspecified) | 23.7 | 87.1 | 70.8 | > 10 | > 10 | > 10 | 8.65 |
| Cc1ccc(S(=O)(=O)N2N=C(c3ccc(N4CCN(C)CC4)cc3)CC2c2ccc(N(C)C)cc2)cc1 (stereo unspecified) | 10.7 | 32.2 | 38.1 |  |  |  |  |
| COC(=O)CC(=O)N1N=C(c2ccc(-n3cncn3)cc2)CC1c1ccc(N(C)C)cc1 (stereo unspecified) | 6.8 | -7.8 | 1.5 |  |  |  |  |

| SMILES | inhibition at 10 µM (MDA-MB-231) [%] | inhibition at 10 µM (HCC1806 [1]) [%] | inhibition at 10 µM (NCI-H1975) [%] | IC50 (HCT-116) [µM] | IC50 (HeLa) [µM] | IC50 (A549) [µM] | IC50 (HCC1806 [2]) [µM] |
| --- | --- | --- | --- | --- | --- | --- | --- |
| CN(C)c1ccc(C2CC(c3ccc(-n4ccnc4)cc3)=NN2C(=O)c2ccc(C(F)(F)F)cc2)cc1 (stereo unspecified) | 17.9 | 28 | 15 |  |  |  |  |
| COC(=O)CC(=O)N1N=C(c2ccc(-n3ccnc3)cc2)CC1c1ccc(N(C)C)cc1 (stereo unspecified) | 2.3 | 2.1 | -0.1 |  |  |  |  |
| CC(=O)N1N=C(c2ccc(-n3cncn3)cc2)CC1c1ccc(N(C)C)cc1 (stereo unspecified) | 7.4 | 11 | -0.3 |  |  |  |  |
| CN1CCN(c2ccc(C3=NN(S(=O)(=O)c4ccc(F)cc4)C(c4ccc(N(C)C)cc4)C3)cc2)CC1 (stereo unspecified) | 15.7 | 92.3 | 95.7 | > 10 | > 10 | 9.6 | 6.1 |
| CN(C)c1ccc(C2CC(c3ccc(-n4ccnc4)cc3)=NN2C(=O)c2ccc(F)cc2)cc1 (stereo unspecified) | 9.4 | 7.1 | -3.5 |  |  |  |  |
| CN(C)c1ccc(C2CC(c3ccc(-n4ccnc4)cc3)=NN2S(C)(=O)=O)cc1 (stereo unspecified) | 12 | 11.3 | -3.8 |  |  |  |  |
| CN(C)c1ccc(C2CC(c3ccc(-n4cncn4)cc3)=NN2C(=O)c2ccc(F)cc2)cc1 (stereo unspecified) | 12.5 | 15.6 | -1.1 |  |  |  |  |
| CN1CCN(c2ccc(C3=NNC(c4ccc(N(C)C)cc4)C3)cc2)CC1 (stereo unspecified) | 11.4 | 31.2 | 2.4 |  |  |  |  |
| CN(C)c1ccc(C2CC(c3ccc(-n4cncn4)cc3)=NN2C(=O)/C=C/c2ccccc2)cc1 (stereo unspecified) | 8.5 | -3.7 | -2.3 |  |  |  |  |
| CN(C)c1ccc(C2CC(c3ccc(-n4cncn4)cc3)=NN2S(C)(=O)=O)cc1 (stereo unspecified) | 7.8 | 10.8 | -3.1 |  |  |  |  |
| CN(C)c1ccc(C2CC(c3ccc(-n4cncn4)cc3)=NN2C(=O)c2cc(Cl)cc(Cl)c2)cc1 (stereo unspecified) | 9.4 | 5.3 | 8.4 |  |  |  |  |
| C=C(C)C(=O)N1N=C(c2ccc(-n3ccnc3)cc2)CC1c1ccc(N(C)C)cc1 (stereo unspecified) | 4.3 | 1.6 | -3.7 |  |  |  |  |
| Cc1ccc(C(=O)N2N=C(c3ccc(N4CCN(C)CC4)cc3)CC2c2ccc(N(C)C)cc2)cc1 (stereo unspecified) | -0.7 | -2.5 | -0.4 |  |  |  |  |
| CN(C)c1ccc(C2CC(c3ccc(-n4cncn4)cc3)=NN2)cc1 (stereo unspecified) | 7 | 6.8 | -3.3 |  |  |  |  |
| CN1CCN(c2ccc(C3=NN(S(=O)(=O)c4ccc(C(F)(F)F)cc4)C(c4ccc(N(C)C)cc4)C3)cc2)CC1 (stereo unspecified) | 12.1 | 27 | 18.9 |  |  |  |  |
| CN(C)c1ccc(C2CC(c3ccc(-n4cncn4)cc3)=NN2S(=O)(=O)c2ccc(OC(F)(F)F)cc2)cc1 (stereo unspecified) | 18.5 | 25.2 | 11.1 |  |  |  |  |
| CN1CCN(c2ccc(C3=NN(C(=O)/C=C/c4ccccc4)C(c4ccc(N(C)C)cc4)C3)cc2)CC1 (stereo unspecified) | 35.9 | 71 | 81 | > 10 | > 10 | > 10 | 9.05 |
| CN1CCN(c2ccc(C3=NN(C(=O)c4ccc(C(F)(F)F)cc4)C(c4ccc(N(C)C)cc4)C3)cc2)CC1 (stereo unspecified) | 55.4 | 84.1 | 93.2 | > 10 | > 100 | > 10 | 5.4 |
| Cc1ccc(S(=O)(=O)N2N=C(c3ccc(-n4cncn4)cc3)CC2c2ccc(N(C)C)cc2)cc1 (stereo unspecified) | 20.7 | 27.7 | 20 |  |  |  |  |
| CN(C)c1ccc(C2CC(c3ccc(-n4cncn4)cc3)=NN2S(=O)(=O)c2ccc(C#N)cc2)cc1 (stereo unspecified) | 32.8 | 35.1 | 22.6 |  |  |  |  |
| CN(C)c1ccc(C2CC(c3ccc(-n4ccnc4)cc3)=NN2)cc1 (stereo unspecified) | 7.6 | -20.9 | 0.1 |  |  |  |  |
| CN(C)c1ccc(C2CC(c3ccc(-n4ccnc4)cc3)=NN2C(=O)c2cc(Cl)cc(Cl)c2)cc1 (stereo unspecified) | 48.8 | 44.5 | 58.7 |  |  |  |  |
